Consider 21 compounds from US11236055B2 (Venenum Biodesign, LLC, priority 2016, dated 2022).

One test addresses T1, mouse TGR5 receptor (Mus musculus, UniProt Q80SS6).
T1 construct: expressed in transfected cells; host or cells: HEK293-EBNA (293 c18, ATCC CRL10852), Hygromycin B selection
T1 sequence (Q80SS6 1-329): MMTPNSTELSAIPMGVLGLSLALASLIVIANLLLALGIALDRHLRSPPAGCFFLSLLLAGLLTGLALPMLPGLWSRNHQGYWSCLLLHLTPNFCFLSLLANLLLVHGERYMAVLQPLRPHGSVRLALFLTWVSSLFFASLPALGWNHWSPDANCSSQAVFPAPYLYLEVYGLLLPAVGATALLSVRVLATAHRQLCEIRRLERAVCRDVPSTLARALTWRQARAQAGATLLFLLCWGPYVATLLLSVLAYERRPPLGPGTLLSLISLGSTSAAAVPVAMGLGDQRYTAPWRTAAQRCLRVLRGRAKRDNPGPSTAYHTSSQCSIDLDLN
The test can be described thus: Mouse TGR5 cAMP production assay (HTRF, Cisbio cAMP HiRange). It is filed as cell-based. Particulars: HEK293-EBNA cells overexpressing mouse TGR5, HTRF cAMP HiRange; coded A-D. The procedure, abridged:
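cAMP read by HTRF competition after 1 h room-temperature compound exposure of mouse TGR5-overexpressing HEK293-EBNA cells. Cells were suspended in serum-free DMEM containing 500 μM IBMX; compounds ran as 12-point half-log dilutions in duplicate; EC50 derived.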
In general terms: Cyclic AMP is a second messenger, typically raised through Gs and lowered through Gi signalling.

Another test relates to Mouse STC-1 cells. The test can be described thus: STC-1 GLP-1 assay. It is filed as cell-based. Particulars: GLP-1 secretion, 2 h, coded A-C, read-out: Mouse STC-1 HTRF GLP-1 Activity (EC50). As to the method: We evaluated Compounds of the present invention for their ability to induce GLP-1 production in mouse intestinal neuroendocrine tumor cells. Mouse STC-1 cells were cultured and maintained in high glucose DMEM (Sigma #5796) supplemented with 15% horse serum, 5% Fetal Bovine Serum (FBS), 1% penicillin/streptomycin, and 2 mM L-alanine L-glutamine (GlutaMax). Two days prior to analysis of GLP-1 secretion cells were harvested using Accutase (Sigma), spun down then resuspended in high glucose DMEM media containing 2 mM L-alanine L-glutamine (GlutaMax), 10% charcoal-dextran stripped FBS, and 50 μg/mL Gentamicin, at a density of 100,000 cells/mL. 100 μL of cell suspension was added to each well of a 96-well Poly-D-Lysine coated culture plate (Sigma; cat #2382493) and was incubated at 37° C. with 5% CO2.
Compounds were initially diluted in 100% DMSO (12-point serial dilution by half logs) in a 96-well plate and then were further diluted 1:500 in Hanks' Balanced Salt Solution (HBSS) containing protease inhibitor cocktail, DPP-IV inhibitor, and 0.1% fatty acid free bovine serum albumin. On the day of the experiment cells were washed once with HBSS. After wash, 100 μL of test compound was added to each well. The plate was incubated at 37° C. with 5% CO2 for 2 h. Supernatants were collected and GLP-1 secretion was measured using the Cisbio™ Active GLP-1 HTRF Assay Kit (Cisbio). Briefly, Anti-GLP-1-d2 conjugate and Anti-GLP-1 Terbium Cryptate conjugate stock solutions were prepared as per kit instructions. The two solutions were pre-mixed and 10 μL were transferred to a 384-well low volume plate (Greiner; cat #784075). 10 μL of collected supernatants were added to wells already containing the conjugate solution. The plate was covered and incubated at room temperature overnight. The plate was read on an Envision™ plate reader (Perkin Elmer).
In Table 34, EC50 values obtained from the STC-1 GLP-1 production assay for compounds of the present invention are summarized.
In general terms: TR-FRET usually uses a lanthanide donor and a delayed reading to cut background.

For the compound `CCc1cnccc1-c1cccc(C2CN(C(=O)CS(=O)(=O)O)CCN2S(=O)(=O)c2cccc(Cl)c2C)c1` (centres unmarked) [Compound 49, 2-(4-((3-Chloro-2-methylphenyl)sulfonyl)-3-(3-(3-ethylpyridin-4-yl)phenyl)piperazin-1-yl)-2-oxoethanesulfonic acid], the EC50 on mouse TGR5 receptor is below 100 nM; with Mouse STC-1 cells, 100 to 999 nM.

For the compound `Cc1cnccc1-c1cccc([C@H](C)N(CCCC(=O)NCCS(=O)(=O)NCCC(=O)O)S(=O)(=O)c2cccc(Cl)c2C)c1` [Compound 21AL], the EC50 is below 100 nM on mouse TGR5 receptor and 100 to 999 nM with Mouse STC-1 cells.

Consider `CCc1cnccc1-c1cccc([C@H](C)N(CCCC(=O)NCCCS(=O)(=O)O)S(=O)(=O)c2cccc(Cl)c2C)c1` [Compound 20AM, (S)-3-(4-(3-chloro-N-(1-(3-(3-ethylpyridin-4-yl)phenyl)ethyl)-2-methylphenylsulfonamido)butanamido)propane-1-sulfonic acid], for which the EC50 was below 100 nM on mouse TGR5 receptor and 100 to 999 nM in the test on Mouse STC-1 cells.

`Cc1cnccc1-c1cccc([C@H](C)N(CCCCC(=O)NCCS(=O)(=O)NCCC(=O)O)S(=O)(=O)c2ccccc2C(F)(F)F)c1` [Compound 20BM]: the concentration for a half-maximal effect (EC50) at mouse TGR5 receptor is below 100 nM; in the test on Mouse STC-1 cells, 1000 to 30000 nM.

With `Cc1cnccc1-c1cccc([C@H](C)N(CCCCNC(=O)CS(=O)(=O)O)S(=O)(=O)c2ccccc2C(F)(F)F)c1` [Compound 31AA, (S)-2-((4-(N-(1-(3-(3-methylpyridin-4-yl)phenyl)ethyl)-2-(trifluoromethyl)phenylsulfonamido)butyl)amino)-2-oxoethanesulfonic acid], the EC50 was below 100 nM on mouse TGR5 receptor and 100 to 999 nM in the test with Mouse STC-1 cells.

Take `CCc1cnccc1-c1cccc(C(C)(C)NS(=O)(=O)c2ccccc2C(F)(F)F)c1` [Compound 5, N-(2-(3-(3-ethylpyridin-4-yl)phenyl)propan-2-yl)-2-(trifluoromethyl)benzenesulfonamide]: the concentration for a half-maximal effect (EC50) on mouse TGR5 receptor is below 100 nM; with Mouse STC-1 cells, 100 to 999 nM.

Compound `Cc1cnccc1-c1cccc(C(C)(C)N(CCCC(=O)NCC(=O)O)S(=O)(=O)c2cccc(Cl)c2C)c1` [Compound 21AB, 2-(4-(3-chloro-2-methyl-N-(2-(3-(3-methylpyridin-4-yl)phenyl)propan-2-yl)phenylsulfonamido)butanamido)acetic acid] showed an EC50 on mouse TGR5 receptor below 100 nM.

Take `Cc1cnccc1-c1cccc(C(C)(C)N(CCCC(=O)O)S(=O)(=O)c2ccccc2C(F)(F)F)c1` [Compound 14, 4-(N-(2-(3-(3-methylpyridin-4-yl)phenyl)propan-2-yl)-2-(trifluoromethyl)phenylsulfonamido)butanoic acid]: the EC50 is below 100 nM at mouse TGR5 receptor and 100 to 999 nM in the test on Mouse STC-1 cells.

As for `CCc1cnccc1-c1cccc(C2CN(C(=O)CCC(=O)O)CCN2S(=O)(=O)c2cccc(Cl)c2C)c1` (racemic) [Compound 46, (+/−) 4-(4-((3-Chloro-2-methylphenyl)sulfonyl)-3-(3-(3-ethylpyridin-4-yl)phenyl)piperazin-1-yl)-4-oxobutanoic acid], the EC50 at mouse TGR5 receptor is below 100 nM; in the test on Mouse STC-1 cells, 100 to 999 nM.

As for `Cc1cnccc1-c1cccc([C@H](C)N(CCCCNC(=O)NCCS(=O)(=O)NCC(=O)O)S(=O)(=O)c2ccccc2C(F)(F)F)c1` [Compound 28AA, (S)-2-(3-(4-(N-(1-(3-(3-methylpyridin-4-yl)phenyl)ethyl)-2-(trifluoromethyl)phenylsulfonamido)butyl)ureido)ethanesulfonamido acetic acid], the EC50 on mouse TGR5 receptor and with Mouse STC-1 cells was 100 to 999 nM throughout.

On to `Cc1cnccc1-c1cccc(C(C)(C)N(CCCNC(=O)NCS(=O)(=O)O)S(=O)(=O)c2cccc(Cl)c2C)c1` [Compound 29, (3-(3-((3-Chloro-2-methyl-N-(2-(3-(3-methylpyridin-4-yl)phenyl)propan-2-yl)phenyl)sulfonamide)propyl)ureido) methanesulfonic acid], for which the EC50 at mouse TGR5 receptor and with Mouse STC-1 cells was 100 to 999 nM throughout.

`Cc1cnccc1-c1cccc(C(C)(C)NS(=O)(=O)c2cccc(C(F)(F)F)c2)c1` [Compound 5AA, N-(2-(3-(3-methylpyridin-4-yl)phenyl)propan-2-yl)-3-(trifluoromethyl)benzenesulfonamide]: the EC50 in the test with Mouse STC-1 cells lay within 100 to 999 nM.

On to `Cc1cnccc1-c1cccc(C(C)(C)N(CCCNC(=O)NCCS(=O)(=O)O)S(=O)(=O)c2cccc(Cl)c2C)c1` [Compound 29AA, 2-(3-(3-((3-Chloro-2-methyl-N-(2-(3-(3-methylpyridin-4-yl)phenyl)propan-2-yl)phenyl)sulfonamide)propyl)ureido)ethane-1-sulfonic acid], for which the EC50 at mouse TGR5 receptor was below 100 nM; in the test on Mouse STC-1 cells, 100 to 999 nM.

`Cc1cnccc1-c1cccc([C@H](C)N(CCCCNC(=O)NCS(=O)(=O)O)S(=O)(=O)c2ccccc2C(F)(F)F)c1` [Compound 28AC, (S)-(3-(4-(N-(1-(3-(3-methylpyridin-4-yl)phenyl)ethyl)-2-(trifluoromethyl)phenylsulfonamido)butyl)ureido)methanesulfonic acid]: the EC50 is below 100 nM at mouse TGR5 receptor and 1000 to 30000 nM with Mouse STC-1 cells.

In the case of `Cc1cnccc1-c1cccc(C(C)(C)N(CCCC(=O)NC[C@@H](O)[C@H](O)[C@@H](O)[C@@H](O)CO)S(=O)(=O)c2cccc(Cl)c2C)c1` [Compound 20AF, 4-(3-chloro-2-methyl-N-(2-(3-(3-methylpyridin-4-yl)phenyl)propan-2-yl)phenylsulfonamido)-N-((2R,3S,4S,5S)-2,3,4,5,6-pentahydroxyhexyl)butanamide], the EC50 at mouse TGR5 receptor was below 100 nM; in the test on Mouse STC-1 cells it was 100 to 999 nM.

Regarding `Cc1cnccc1-c1cccc(C(C)(C)N(CCCC(=O)NCCCS(=O)(=O)O)S(=O)(=O)c2cccc(Cl)c2C)c1` [Compound 20AD, 3-(4-(3-chloro-2-methyl-N-(2-(3-(3-methylpyridin-4-yl)phenyl)propan-2-yl)phenylsulfonamido)butanamido)propane-1-sulfonic acid], on mouse TGR5 receptor, the EC50 is below 100 nM.

On to `Cc1cnccc1-c1cccc([C@H](C)N(CCCCNC(=O)[C@@H](N)CS(=O)(=O)O)S(=O)(=O)c2ccccc2C(F)(F)F)c1` [Compound 31AC, (R)-2-amino-3-((4-(N-((S)-1-(3-(3-methylpyridin-4-yl)phenyl)ethyl)-2-(trifluoromethyl)phenylsulfonamido)butyl)amino)-3-oxopropane-1-sulfonic acid], for which the concentration for a half-maximal effect (EC50) at mouse TGR5 receptor is below 100 nM; in the test with Mouse STC-1 cells, 100 to 999 nM.

As to `CCc1cnccc1-c1cccc([C@H](C)N(CCCCNC(=O)NCS(=O)(=O)O)S(=O)(=O)c2ccccc2C(F)(F)F)c1` [Compound 28AH, (S)-(3-(4-(N-(1-(3-(3-ethylpyridin-4-yl)phenyl)ethyl)-2-(trifluoromethyl)phenylsulfonamido)butyl)ureido)methanesulfonic acid], the figures for the EC50 at mouse TGR5 receptor and in the test with Mouse STC-1 cells were below 100 nM and 100 to 999 nM, respectively.

Consider `CCc1cnccc1-c1cccc([C@H](C)N(CCCC(=O)NCCS(=O)(=O)O)S(=O)(=O)c2ccccc2C(F)(F)F)c1` [Compound 20BF, (S)-2-(4-(N-(1-(3-(3-ethylpyridin-4-yl)phenyl)ethyl)-2-(trifluoromethyl)phenylsulfonamido)butanamido)ethanesulfonic acid], for which the values for the EC50 at mouse TGR5 receptor and in the test on Mouse STC-1 cells were below 100 nM and 100 to 999 nM, respectively.

Consider `Cc1cnccc1-c1cccc([C@H](C)N(CCCC(=O)NCCS(=O)(=O)NCCCC(=O)O)S(=O)(=O)c2ccccc2C(F)(F)F)c1` [Compound 20BK], for which the EC50 is below 100 nM at mouse TGR5 receptor and 1000 to 30000 nM with Mouse STC-1 cells.

`Cc1cnccc1-c1cccc(C(C)(C)N(CCCC(=O)NCCS(=O)(=O)NCC(=O)O)S(=O)(=O)c2cccc(Cl)c2C)c1` [Compound 20AW, (4-(3-chloro-2-methyl-N-(2-(3-(3-methylpyridin-4-yl)phenyl)propan-2-yl)phenylsulfonamido)-N-butanamidoethylsulfonamido)acetic acid] had an EC50 at mouse TGR5 receptor below 100 nM.

Broadly, the EC50 is the concentration at which the effect is half-maximal.
